Here are results for 3 compounds from US20040019026A1, “Compounds useful for treating hypertriglyceridemia” (priority 2000, published 2004).

The conditions of data set [1]: background statement; cited from earlier work.
For the next data set, the system named is Female CD-1 mice. As to the kind of experiment: Dexamethasone-induced thymic and splenic atrophy, anti-glucocorticoid effect (Example 4). It is filed as in vivo. The following applies: 1.6 mg dexamethasone s.c., sacrifice about 24 hours later. The method, then: Female CD-1 mice were obtained from Charles River Laboratories, Kingston, N.Y. at 43-45 days of age. The mice were housed five per cage in plastic shoebox cages on corn cob bedding in the Fels Animal Facility at 72°±2° F. with 50%±5% humidity and twelve hours of alternate light and darkness. The mice had ad libitum access to Purina chain 5015 and acidified water for pretreatment.
Six days later, the mice were weighed, earmarked and redistributed into six groups for treatment: 1) a control group, 2) a group treated with dexamethasone (“DEX”), a glucocorticoid which induces thymic and splenic atrophy, 3) a group treated with 200 mg/kg 16α-fluoro-5-androsten-17-one (hereinafter “drug”), 4) a group treated with 400 mg/kg of, 5) a group treated with dexamethasone and 200 mg/kg drug and 6) a group treated with dexamethasone and 400 mg/kg drug. The treatment in the groups were as follows and were conducted simuitaneously.
The control group was intubated with 0.2 mL of sesame oil for three days. On the third day after commencement of the intubation, the mice were injected subcutaneously with 0.05 mL of absolute ethanol one hour after the last treatment with sesame oil.
The second group was intubated with 0.2 mL of sesame oil for three days. On the third day after the commencement of the intubation, the mice were injected subcutaneously with 1.6 mg of dexamethasone dissolved in 0.05 mL of absolute ethanol approximately one hour after the last treatment with sesame oil.
The third and fourth groups were intubated with 200 mg/Kg and 400 mg/Kg drug, respectively, suspended in 0.2 mL of sesame oil for three days. After commencement of the intubation, the mice were injected subcutaneously with 0.05 mL of absolute ethanol approximately one hour after the last treatment with sesame oil.
The fifth and sixth groups were intubated with 200 mg/kg and 400 mg/kg, respectively, of drug, suspended in 0.2 mL of sesame oil for three days. On the third day after commencement of the intubation, the mice were injected subcutaneously with 1.6 mg of dexamethasome dissolved in 0.05 mL of absolute ethanol approximately one hour after the last treatment with sesame oil.
All of the mice were sacrificed by an overdose of CO2 approximately 24 hours after the injection of ethanol (first, third and fourth groups) or approximately 24 hours after injection with dexamethasone (second, fifth and sixth groups). The mice were weighed and the thymus was excised, cleaned of adventia, rinsed in phosphate-buffered saline (P.B.S.), blotted and weighed. The spleen was also excised, cleaned, rinsed, blotted and weighed.

Turning to `O=C(O)c1cccnc1` [Nicotinic acid, nicotinic acid], in data set [1], the “Effect on insulin resistance” value was “worsens insulin resistance”; the “Side effects” value was “intense flushing and associated pruritus”.
`C[C@@H]1C[C@H]2[C@@H]3CCC4=CC(=O)C=C[C@]4(C)[C@@]3(F)[C@@H](O)C[C@]2(C)[C@@]1(O)C(=O)CO` [DEX, dexamethasone, reference compound]: in the data set with Female CD-1 mice, the “Spleen Wt.” value is 45.2 ± 7.5 mg and the “Thymus Wt.” value was 36.8 ± 7.1 mg.
On to `Cc1ccc(C)c(OCCCC(C)(C)C(=O)O)c1` [Gemfibrozil, gemfibrozil], for which, in data set [1], the “Effect on HDL levels” value was “modestly raises HDL levels”, the “Effect on insulin resistance” value is reported as “no effect on insulin resistance” and the Lowering of triglycerides was 25-35%.
